Data taken from patent publication US8829034B2, “Compounds which modulate the CB2 receptor” (Boehringer Ingerlheim International GmbH, priority 2006, dated 2014).

Biological target: T1, human CB2R (Homo sapiens, UniProt P34972)
T1 construct: host or cells: CHO cells
Test: CB2R mediated modulation of cAMP synthesis
Type: cell-based
Conditions: for agonistic activity: found through the use of the above described assays
Protocol: B. CB2R Mediated Modulation of cAMP Synthesis:
CHO cells expressing human CB2R (Euroscreen) were plated at a density of 5000 cells per well in 384 well plates and incubated overnight at 37° C. After removing the media, the cells were treated with test compounds diluted in stimulation buffer containing 1 mM IBMX, 0.25% BSA and 10 uM Forskolin. The assay was incubated for 30 minutes at 37° C. Cells were lysed and the cAMP concentration was measured using DiscoverX-XS cAMP kit, following the manufacturer's protocol. In this setting, agonists will decrease forskolin induced production of cAMP while inverse agonists will further increase forskolin induced production of cAMP. EC50 of agonists were calculated as follows. The maximal amount of cAMP produced by forskolin compared to the level of cAMP inhibited by 1 uM CP55940 is defined as 100%. The EC50 value of each test compound was determined as the concentration at which 50% of the forskolin-stimulated cAMP synthesis was inhibited. Data was analyzed using a four-parameter logistic model. (Model 205 of XLfit 4.0).

T1 sequence (P34972 whole entry): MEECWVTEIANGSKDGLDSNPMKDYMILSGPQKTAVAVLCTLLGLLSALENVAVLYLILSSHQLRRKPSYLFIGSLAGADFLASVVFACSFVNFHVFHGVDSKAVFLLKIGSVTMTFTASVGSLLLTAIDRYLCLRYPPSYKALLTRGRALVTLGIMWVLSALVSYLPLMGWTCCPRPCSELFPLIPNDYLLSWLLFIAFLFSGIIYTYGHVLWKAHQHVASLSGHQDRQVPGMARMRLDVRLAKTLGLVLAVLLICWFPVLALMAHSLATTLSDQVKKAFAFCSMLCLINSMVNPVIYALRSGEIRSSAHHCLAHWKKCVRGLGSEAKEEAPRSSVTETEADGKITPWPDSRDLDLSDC

SMILES | agonistic activity | EC50
Cn1nc(C(C)(C)C)cc1NC(=O)C(C)(C)S(C)(=O)=O [N-(5-tert-Butyl-2-methyl-2H-pyrazol-3-yl)-2-methanesulfonyl-2-methyl-propionamide] | agonistic activity | –
CC(C)(C(=O)Nc1nc(-c2ccc(Cl)cc2)cs1)S(=O)(=O)C1CCCC1 [N-[4-(4-Chloro-phenyl)-thiazol-2-yl]-2-cyclopentanesulfonyl-2-methyl-propionamide] | agonistic activity | 0.0015 µM
CC(C)(C)C(=O)CS(=O)(=O)C(C)(C)C(=O)Nc1cc(C(C)(C)C)on1 [N-(5-tert-Butyl-isoxazol-3-yl)-2-(3,3-dimethyl-2-oxo-butane-1-sulfonyl)-2-methyl-propionamide] | agonistic activity | 0.0398 µM
CC(C)S(=O)(=O)C(C)(C)C(=O)Nc1nc(-c2ccc(Cl)cc2)cs1 [N-[4-(4-Chloro-phenyl)-thiazol-2-yl]-2-methyl-2-(propane-2-sulfonyl)-propionamide] | agonistic activity | 0.0449 µM
CCCS(=O)(=O)C(C)(C)C(=O)Nc1nc(C2CCCCC2)cs1 [N-(4-Cyclohexyl-thiazol-2-yl)-2-methyl-2-(propane-1-sulfonyl)-propionamide] | agonistic activity | 0.0311 µM
Cn1nc(C(C)(C)C)cc1NC(=O)C(C)(C)S(=O)(=O)C1CCOCC1 [N-(5-tert-Butyl-2-methyl-2H-pyrazol-3-yl)-2-methyl-2-(tetrahydro-pyran-4-sulfonyl)-propionamide] | agonistic activity | –
CC(C)CS(=O)(=O)C(C)(C)C(=O)Nc1cc(C(C)(C)C)on1 [N-(5-tert-Butyl-isoxazol-3-yl)-2-methyl-2-(2-methyl-propane-1-sulfonyl)-propionamide] | agonistic activity | 0.0446 µM
CC(C)(C)c1cc(NC(=O)C(C)(C)S(=O)(=O)C2CCCCC2)on1 [N-(3-tert-Butyl-isoxazol-5-yl)-2-cyclohexanesulfonyl-2-methyl-propionamide] | agonistic activity | –
Cn1nc(C(C)(C)C)cc1NC(=O)C(C)(C)S(=O)(=O)CC(C)(C)C [N-(5-tert-Butyl-2-methyl-2H-pyrazol-3-yl)-2-(2,2-dimethyl-propane-1-sulfonyl)-2-methyl-propionamide] | agonistic activity | –
CCCS(=O)(=O)C(C)(C)C(=O)Nc1nc(C(F)(F)F)cs1 [2-Methyl-2-(propane-1-sulfonyl)-N-(4-trifluoromethyl-thiazol-2-yl)-propionamide] | agonistic activity | –
CC(C)(C(=O)Nc1ccc(C(F)(F)F)cn1)S(=O)(=O)C1CCCCCC1 [2-Cycloheptanesulfonyl-2-methyl-N-(5-trifluoromethyl-pyridin-2-yl)-propionamide] | agonistic activity | 0.0071 µM
CCCS(=O)(=O)C(C)(C)C(=O)Nc1nc(-c2ccc(Cl)cc2)cs1 [N-[4-(4-Chloro-phenyl)-thiazol-2-yl]-2-methyl-2-(propane-1-sulfonyl)-propionamide] | agonistic activity | 0.013 µM
CC(C)S(=O)(=O)C(C)(C)C(=O)Nc1cc(C(C)(C)C)on1 [N-(5-tert-Butyl-isoxazol-3-yl)-2-methyl-2-(propane-2-sulfonyl)-propionamide] | agonistic activity | –
CC(C)(C)S(=O)(=O)C(C)(C)C(=O)Nc1cccc(C(F)(F)F)n1 [2-Methyl-2-(2-methyl-propane-2-sulfonyl)-N-(6-trifluoromethyl-pyridin-2-yl)-propionamide] | agonistic activity | –
CC(C)(C(=O)Nc1nc(-c2ccccc2)ns1)S(=O)(=O)CC1CCOCC1 [2-Methyl-N-(3-phenyl-1,2,4-thiadiazol-5-yl)-2-(tetrahydro-pyran-4-ylmethanesulfonyl)-propionamide] | agonistic activity | –
